From patent US20080153806A1, “Novel Diazabicyclic Aryl Derivatives And Their Medical Use” (priority 2004, published 2008)
Where a name gives a salt, the structure may show the parent alone. Read-outs that look alike come from different tables or passages of the source.

What was measured:
[1] = molecular target: T1, α7-subtype of nicotinic receptors (Rattus norvegicus, UniProt Q05941); assay: In vitro inhibition of 3H-α-bungarotoxine binding in rat brain; conditions: rat cerebral cortex homogenate, 2 hours at 37° C., read-out: IC50 (concentration of the test substance which inhibits the specific binding of 3H-α-bungarotoxine by 50%)
T1 construct: Cerebral cortices from male Wistar rats (150-250 g) are homogenised; from tissue; host or cells: rat cerebral cortex membrane homogenate (male Wistar rats)
T1 sequence (Q05941 23-502): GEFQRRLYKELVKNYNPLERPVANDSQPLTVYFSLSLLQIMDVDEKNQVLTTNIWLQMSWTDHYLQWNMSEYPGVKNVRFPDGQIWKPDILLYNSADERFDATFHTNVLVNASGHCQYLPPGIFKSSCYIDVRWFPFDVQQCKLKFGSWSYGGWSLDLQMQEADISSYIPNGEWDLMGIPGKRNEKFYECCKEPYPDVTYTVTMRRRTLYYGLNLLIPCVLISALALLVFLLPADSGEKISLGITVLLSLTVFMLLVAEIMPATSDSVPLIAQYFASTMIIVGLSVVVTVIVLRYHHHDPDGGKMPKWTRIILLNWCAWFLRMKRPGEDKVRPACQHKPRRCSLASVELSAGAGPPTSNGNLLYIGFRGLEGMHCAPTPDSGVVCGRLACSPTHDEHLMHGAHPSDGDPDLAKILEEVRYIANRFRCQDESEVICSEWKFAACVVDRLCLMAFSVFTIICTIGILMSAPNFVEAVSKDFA

CN1C2CCC1CN(c1ccc(-c3ccc(F)cc3)nn1)C2
melting point: 164 to 165 °C

CN1C2CCC1CN(c1ccc(-c3cccc(Cl)c3)nn1)C2
melting point: 159 °C

CN1C2CCC1CN(c1ccc(-c3ccccc3Cl)nn1)C2 (as salt: fumaric acid salt)
melting point: 192 to 200 °C

CN1C2CCC1CN(c1ccc(-c3cccc(F)c3)nn1)C2 [Compound E11, 3-[6-(3-Fluoro-phenyl)-pyridazin-3-yl]-8-methyl-3,8-diaza-bicyclo[3.2.1]octane]
IC50 ([1]; 3H-α-bungarotoxine 2 nM): < 1000 nM | melting point: 149 to 150 °C

CN1C2CCC1CN(c1ccc(-c3ccccc3)nn1)C2
melting point: 151 °C

CN1C2CCC1CN(c1ccc(-c3ccccc3N)nn1)C2 (as salt: fumaric acid salt)
melting point: 186 to 195 °C

COc1ccc(-c2ccc(N3CC4CCC(C3)N4C)nn2)cc1
melting point: 154 to 155 °C

COc1ccccc1-c1ccc(N2CC3CCC(C2)N3C)nn1
melting point: 170 to 172 °C

CN1C2CCC1CN(c1ccc(-c3ccsc3)nn1)C2 [Compound E2, 8-Methyl-3-(6-thiophen-3-yl-pyridazin-3-yl)-3,8-diaza-bicyclo[3.2.1]octane]
IC50 ([1]; 3H-α-bungarotoxine 2 nM): < 1000 nM | melting point: 172 to 173 °C

COc1cccc(-c2ccc(N3CC4CCC(C3)N4C)nn2)c1
melting point: 92 to 97 °C

CN1C2CCC1CN(c1ccc(-c3ccco3)nn1)C2 [Compound E3, 3-(6-Furan-2-yl-pyridazin-3-yl)-8-methyl-3,8-diaza-bicyclo[3.2.1]octane]
IC50 ([1]; 3H-α-bungarotoxine 2 nM): < 1000 nM | melting point: 144 °C

CN1C2CCC1CN(c1ccc(-c3ccc(Cl)cc3)nn1)C2
melting point: 180 °C

CN1C2CCC1CN(c1ccc(-c3ccccc3F)nn1)C2 [Compound E9, 3-[6-(2-Fluoro-phenyl)-pyridazin-3-yl]-8-methyl-3,8-diaza-bicyclo[3.2.1]octane]
IC50 ([1]; […]): < 1000 nM | melting point: 152 °C

CN1C2CCC1CN(c1ccc(-c3ccoc3)nn1)C2 [Compound E5, 3-(6-Furan-3-yl-pyridazin-3-yl)-8-methyl-3,8-diaza-bicyclo[3.2.1]octane]
IC50 ([1]; 3H-α-bungarotoxine 2 nM): < 1000 nM | melting point: 152 °C

CN1C2CCC1CN(c1nnc(-c3ccccc3)o1)C2 (as salt: fumaric acid salt)
melting point: 170 to 191 °C

CN1C2CCC1CN(c1ccc(-c3cccc(N)c3)nn1)C2 [Compound E7, 3-[6-(8-Methyl-3,8-diaza-bicyclo[3.2.1]oct-3-yl)-pyridazin-3-yl]-phenylamine]
IC50 ([1]; 3H-α-bungarotoxine 2 nM): < 1000 nM | melting point: 164 °C

CN1C2CCC1CN(c1ccc(-c3ccccc3)cn1)C2
melting point: 110.5 °C

CN1C2CCC1CN(c1cccc(-c3ccccc3)n1)C2 (as salt: fumaric acid salt)
melting point: 159 to 160 °C

CC(=O)Nc1cccc(-c2ccc(N3CC4CCC(C3)N4C)nn2)c1 [Compound E8, N-{3-[6-(8-Methyl-3,8-diaza-bicyclo[3.2.1]oct-3-yl)-pyridazin-3-yl]-phenyl}-acetamide]
IC50 ([1]; […]): < 1000 nM | melting point: 74 °C

CN1C2CCC1CN(c1nnc(-c3ccccc3)s1)C2 (as salt: fumaric acid salt)
melting point: 192 to 200 °C

CN1C2CCC1CN(c1ccc(-c3cccs3)nn1)C2 [Compound E1, 8-Methyl-3-(6-thiophen-2-yl-pyridazin-3-yl)-3,8-diaza-bicyclo[3.2.1]octane]
IC50 ([1]; 3H-α-bungarotoxine 2 nM): < 1000 nM | melting point: 156 °C

CC(=O)Nc1ccccc1-c1ccc(N2CC3CCC(C2)N3C)nn1 (as salt: fumaric acid salt)
melting point: 219 to 222 °C

COc1ccc2cc(-c3ccc(N4CC5CCC(C4)N5C)nn3)ccc2c1 (as salt: fumaric acid salt)
melting point: 242 °C

CN1C2CCC1CN(c1ccc(-c3cccnc3)nn1)C2
melting point: 131 to 133 °C
